Reference: US20250387438A1, “USE OF […] SP. OR COMPOSITION COMPRISING SAME IN PREVENTION OR TREATMENT OF TUMORS, AND DRUG COMPRISING SAME” (Moon (Guangzhou) Biotech Co., Ltd., priority 2022, published 2025)

Key:
[1] = system: Christensenella sp. MNH04863; experiment: Antibiotic susceptibility testing by disk diffusion method; assay type: cell-based; conditions: for Inhibition Zone Diameter: against Christensenella sp. MNH04863
Excerpt: The disk diffusion method was used to conduct the antibiotic susceptibility testing of Christensenella sp. MNH04863. Christensenella sp.

[2] = system: KPC mouse pancreatic cancer cells; conditions: in vivo
[3] = system: KPC mouse pancreatic cancer cells; experiment: Pancreatic cancer mouse homologous tumor model, combination with gemcitabine

| Compound | Susceptibility of Christensenella sp. MNH04863 to the antibiotic [1] | Inhibition Zone Diameter [1] | further results |
| --- | --- | --- | --- |
| CC1(C)S[C@@H]2[C@H](NC(=O)[C@H](N)c3ccccc3)C(=O)N2[C@H]1C(=O)O [Ampicillin (AMP), Ampicillin] | resistance | 0 mm | – |
| O=C(O)c1cn(C2CC2)c2cc(N3CCNCC3)c(F)cc2c1=O [Ciprofloxacin (CIP), Ciprofloxacin] | resistance | 0 mm | – |
| CC[C@H]1OC(=O)[C@H](C)[C@@H](O[C@H]2C[C@@](C)(OC)[C@@H](O)[C@H](C)O2)[C@H](C)[C@@H](O[C@@H]2O[C@H](C)C[C@H](N(C)C)[C@H]2O)[C@](C)(O)C[C@@H](C)C(=O)[C@H](C)[C@@H](O)[C@]1(C)O [Erythromycin (E), Erythromycin] | sensitive | 16.82 mm | – |
| Gentamycin [Gentamycin (GEN)] | resistance | 0 mm | – |
| Nc1ccn([C@@H]2O[C@H](CO)[C@@H](O)C2(F)F)c(=O)n1 [Gemcitabine] | – | – | Number of Euthanized mice ([2]; C57BL/6J): 2; Average Weight Before Dissection [2]: 21.13 g; Average Dissected Tumor Weight ([3]; experimental endpoint): 0.68 g; Experimental Endpoint TGI ([3]; vs control): 40.0% |
| CN(C)[C@@H]1C(O)=C(C(N)=O)C(=O)[C@@]2(O)C(O)=C3C(=O)c4c(O)cccc4[C@@](C)(O)[C@H]3C[C@@H]12 [Tetracycline (TET), Tetracycline] | – | 46.11 mm | – |
| CO/N=C(\C(=O)N[C@@H]1C(=O)N2C(C(=O)O)=C(CSc3nc(=O)c(=O)[nH]n3C)CS[C@H]12)c1csc(N)n1 [Ceftriaxone (CTR), Ceftriaxone] | sensitive | 37.32 mm | – |
| Penicillin [Penicillin (PEN)] | sensitive | 43.06 mm | – |
| Compound Sulfamethoxazole [Compound Sulfamethoxazole (SXT)] | resistance | 0 mm | – |
| O=C(N[C@H](CO)[C@H](O)c1ccc([N+](=O)[O-])cc1)C(Cl)Cl [Chloramphenicol (C), Chloramphenicol] | sensitive | 38.88 mm | – |
| CCC[C@@H]1C[C@@H](C(=O)N[C@@H]([C@H]2O[C@H](SC)[C@H](O)[C@@H](O)[C@H]2O)[C@@H](C)O)N(C)C1 [Lincomycin (MY), Lincomycin] | sensitive | 29.86 mm | – |
